Test results as given in US20090011052A1, “Anti-HIV medicinal herbs composition, preparation thereof and use of the same” (priority 2004, published 2009).

Key:
[1] = tested on: SIVmac251; test: Plasma viral load in SIVmac251-infected Rhesus monkey; settings: within the dosing range
Excerpt: Experiment animals: 5 females and 5 males Rhesus monkey as experimental animal with 4.5-5.5 Kg/each for a total of 10 were used, purchased from Primate Breeding Center, Research Institute of Experimental Animals, Chinese Academy of Medical Sciences. They were fed with commercial popped feeds. No abnormal physical examination was found before the experiment. Potential infections with SIV, SRV Type D and STLV-I were excluded by the serum IFA antibody test.
Each animal was intravenously infected with 1 ml virus solution equivalent to 3MID100 viral load.
Within each group, there were 3-4 animals with equal females and males. […] No drug treatment was offered for SIVmac251 infection control group.
Observation pre- and post-infection: Besides other pre-infection physical examinations, body weight and blood-drawing were made for each monkey (conducting all parameter tests). […] At the pre-determined timepoints, blood was drawn for the monkey to measure the plasma viral titer, blood CD4^+ count and antibody titre. […]
Plasma virus isolation: After the animals were infected with SIVmac251, to collect the blood samples were collected respectively at Days 7, 11, 14, 21, 28, 42, 60 and the plasma were separated by heparin anti-clotting. […] The viral titre was chosen for the sample with the lowest inoculation quantity but showing the typical patterns of cellular confluence. […]

[2] = tested on: SIVmac251; test: Blood CD4+ lymphocyte count in SIVmac251-infected Rhesus monkey; type: in vivo
Excerpt: They were fed with commercial popped feeds.
Measurement of blood CD4^+ count: Blood samples were drawn from the animals before infection and 14, 28, 42 and 60 days after infection with SIVmac251 Ficoll lymphocyte separation fluid was adopted to isolate the peripheral lymphocytes. After tagging the anti-CD4 monoclonal antibody with direct fluorescence, the cells were counted on FACS machine to obtain the CD4^+ percentage. In combination with WBC count with DC of routine blood examination, the total count of blood CD4^+ lymphocytes was calculated. • 1.

SMILES: Cc1cn([C@H]2C[C@H](N=[N+]=[N-])[C@@H](CO)O2)c(=O)[nH]c1=O [AZT]
- inhibition rate upon SIV [1]: over 90%
- CD4 cells spared of the viral attacks (protected) ([2]; 2 and 4 weeks post-infection): 35%
- CD4+ lymphocytes ([2]; 2 week infection): 714.51
- CD4+ lymphocytes, Difference with control ([2]; 2 week infection): 187.21
- CD4+ lymphocytes, Difference with control (%) ([2]; 2 week infection): (35.5%)
- CD4+ lymphocytes ([2]; 4 week): 540.57
- CD4+ lymphocytes, Difference with control ([2]; 4 week): 137.96
- CD4+ lymphocytes, Difference with control (%) ([2]; 4 week): (34.27%)
- CD4+ lymphocytes ([2]; 6 week): 543.31
- CD4+ lymphocytes, Difference with control ([2]; 6 week): 83.24
- CD4+ lymphocytes, Difference with control (%) ([2]; 6 week): (18.09%)
- CD4+ lymphocytes ([2]; 8 w): 530.95
- CD4+ lymphocytes, Difference with control (%) ([2]; 8 w): (43.0%)
- CD4+ lymphocytes ([2]; Pre-experiment): 959.86
